Measured values taken from US5242938A, “Derivatives of virginiamycin M1” (Merck & Co., Inc., priority 1992, dated 1993).
pIC50: −log10 of the molar value. Values after ≈ are worked out from the molar mass of the structure shown. Like-named read-outs stand apart in the source and are kept apart here.

Legend:
[1] = test system: Micrococcus luteus (Mb 1101, ATCC 9341); assay: Agar diffusion disc assay, Micr 1101; assay type: cell-based; settings: Micrococcus luteus; for MIC: read-out: Agar Diffusion MIC versus Micrococcus luteus; for zone of inhibition at 5 µg/disc: 5.00 μg/disc; for zone of inhibition at 10 µg/disc: 10.0 μg/disc
Procedure: (§1) Cultures employed in evaluating antimicrobial activity included plant pathogens, human and animal opportunistic pathogens and selected laboratory strains having specific-antibiotic sensitivities or chromosomal or R-plasmid-mediated resistances. […] The agar diffusion MIC's were determined using the method described by Barry in Anitbiotics in Laboratory Medicine, 2nd Ed., Ed. V. Lorian, pp. 1-63, William & Wilkins, Baltimore, 1986. Each test compound was dissolved in methanol to a concentration of 1 mg/ml. Serial dilutions of these compounds were also made to determine an agar diffusion MIC. 20 μl of each dilution was pipetted on to 6 mm paper discs, air dried and placed onto the surface of an agar plate seeded with the appropriate bacteria (~10^6 cfu). Seeded agar plates were incubated overnight (~18 hours) at 25° C. Zone sizes were measured to the nearest mm. Each compound was tested in triplicate and the results shown represent the mean.

[2] = test system: Corynebacterium pseudodiphtheriticum (Mb 261, ATCC 9742); assay: Agar diffusion disc assay, Cory 261; assay type: cell-based; settings: Corynebacterium pseudodiphtheriticum, ATCC9742, 18 h; @ 20 g/disc; read-out: Inhibition zone diameter, Cory 261
Procedure: as §1

[3] = target: T1, CCK-B (guinea pig cortex) (Cavia porcellus, UniProt H0VZC5); assay: [125I]BHCCK-8 radioligand binding, guinea pig cortical preparation; settings: read-out: CCK binding inhibition - IC50, [125I]BHCCK
T1 construct: guinea pig cortical preparations; from tissue; host or cells: guinea pig brain cortex membranes
T1 sequence (H0VZC5 1-426): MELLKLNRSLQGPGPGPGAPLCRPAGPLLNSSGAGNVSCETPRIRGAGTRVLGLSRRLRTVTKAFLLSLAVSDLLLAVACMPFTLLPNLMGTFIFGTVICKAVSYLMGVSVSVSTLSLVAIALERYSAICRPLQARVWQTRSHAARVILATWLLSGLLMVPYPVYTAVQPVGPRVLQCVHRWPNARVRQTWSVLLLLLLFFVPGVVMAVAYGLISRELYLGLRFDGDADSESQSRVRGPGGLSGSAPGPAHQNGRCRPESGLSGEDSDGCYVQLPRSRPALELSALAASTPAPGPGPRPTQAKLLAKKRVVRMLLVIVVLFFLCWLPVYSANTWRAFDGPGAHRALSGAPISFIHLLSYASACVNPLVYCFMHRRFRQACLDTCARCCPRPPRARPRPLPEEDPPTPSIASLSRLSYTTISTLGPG
Procedure: (§2) The resulting supernatant was re-spun at 20,000×g for 20 minutes. […] Incubations were for 40 minutes at 4° C. and were terminated by filtration and washing with ice cold 100 mM saline. […] Incubations were for 30 minutes at room temperature and were terminated by filtration over GF/C filters and washing with 100 mM NaCl.

[4] = test system: Pseudomonas stutzeri (Mb 1231, ATCC 11607); assay: Agar diffusion disc assay, Pseu 1231; assay type: cell-based; settings: Stutzerimonas stutzeri, ATCC11607, 18 h; @ 20 g/disc; read-out: Inhibition zone diameter, Pseu 1231
Procedure: as §1

[5] = test system: Staphylococcus aureus (Mb 2983); assay: Agar diffusion disc assay, Sta 2983; assay type: cell-based; settings: Staphylococcus aureus, 18 h; @ 20 g/disc; read-out: Inhibition zone diameter, Sta 2983
Procedure: as §1

[6] = target: T1, CCK-B (guinea pig cortex); assay: [3H]L-365,260 CCK-B selective antagonist ligand binding, brain membranes; settings: for pIC50: read-out: CCK binding inhibition - IC50, [3H]L-365,260
Procedure: as §2

CCK-A (rat pancreas) [7] = target: T2, CCK-A (rat pancreas) (Rattus norvegicus, UniProt P30551); assay: [3H]L-364,718 CCK-A selective antagonist ligand binding, pancreas; settings: read-out: CCK binding inhibition - IC50, [3H]L-364,718
T2 construct: from tissue; host or cells: rat pancreas
T2 sequence (P30551 1-444): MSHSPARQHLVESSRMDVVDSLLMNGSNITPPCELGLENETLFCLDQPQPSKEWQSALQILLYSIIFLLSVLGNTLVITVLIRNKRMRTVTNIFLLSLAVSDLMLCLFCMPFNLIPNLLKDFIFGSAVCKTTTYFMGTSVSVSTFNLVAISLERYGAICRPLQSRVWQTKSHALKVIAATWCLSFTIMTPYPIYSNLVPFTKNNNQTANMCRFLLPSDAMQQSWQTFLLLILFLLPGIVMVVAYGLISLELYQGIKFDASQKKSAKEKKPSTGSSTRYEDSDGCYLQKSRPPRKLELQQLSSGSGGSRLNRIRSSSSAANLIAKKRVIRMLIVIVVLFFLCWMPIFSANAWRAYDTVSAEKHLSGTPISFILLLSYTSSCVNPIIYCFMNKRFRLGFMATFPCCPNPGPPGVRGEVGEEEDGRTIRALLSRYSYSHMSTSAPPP
Procedure: as §2

[8] = test system: Streptococcus agalactiae (Mb 2875); assay: Agar diffusion disc assay, Str 2875; assay type: cell-based; settings: Streptococcus agalactiae, 18 h; @ 20 g/disc; read-out: Inhibition zone diameter, Str 2875
Procedure: as §1

CCK-A (rat pancreas) [9] = target: T2, CCK-A (rat pancreas); assay: [125I]BHCCK-8 radioligand binding, rat pancreatic preparation; settings: read-out: CCK binding inhibition - IC50, [125I]BHCCK
Procedure: as §2

[10] = test system: Streptococcus faecium (Mb 2820); assay: Agar diffusion disc assay, Str 2820; assay type: cell-based; settings: Enterococcus faecium, 18 h; @ 20 g/disc; read-out: Inhibition zone diameter, Str 2820
Procedure: as §1

[11] = test system: Escherichia coli (Mb 1418); assay: Agar diffusion disc assay, Coli 1418; assay type: cell-based; settings: Escherichia coli, 18 h; @ 20 g/disc; read-out: Inhibition zone diameter, Coli 1418
Procedure: as §1

[12] = test system: Salmonella gallinarum (Mb 1287); assay: Agar diffusion disc assay, Salm 1287; assay type: cell-based; settings: Salmonella enterica, GALLINARUM, 18 h; @ 20 g/disc; read-out: Inhibition zone diameter, Salm 1287
Procedure: as §1

[13] = test system: Bacillus subtilis (Mb 964, ATCC 6633); assay: Agar diffusion disc assay, Subt 964; assay type: cell-based; settings: Bacillus subtilis, ATCC6633, 18 h; @ 20 g/disc; read-out: Inhibition zone diameter, Subt 964
Procedure: as §1

Bacillus sp. (Mb 633) = assay: Agar diffusion disc assay, Baci 633; assay type: cell-based; settings: Bacillus, 18 h, @ 20 g/disc; read-out: Inhibition zone diameter, Baci 633
Procedure: as §1

[14] = test system: Staphylococcus aureus (Mb 108, ATCC 6538P); assay: Agar diffusion disc assay, Sta 108; assay type: cell-based; settings: Staphylococcus aureus, ATCC6538P, 18 h; @ 20 g/disc; read-out: Inhibition zone diameter, Sta 108
Procedure: as §1

[15] = test system: En terobacter aergenes (Mb 835); assay: Agar diffusion disc assay, Ent 835; assay type: cell-based; settings: 18 h; @ 20 g/disc; read-out: Inhibition zone diameter, Ent 835
Procedure: as §1

[16] = ATCC9341, 18 h, @ 20 g/disc, read-out: Inhibition zone diameter, Micr 1101
[17] = ATCC9341, 25° C., ~18 hours, read-out: Mean of triplicate zone size versus Micrococcus luteus
[18] = ATCC9341, 20.0 μg/disc, 25° C., ~18 hours, read-out: Mean of triplicate zone size versus Micrococcus luteus

Q: How did the zone of inhibition at 20 µg/disc [1, 16] turn out when `CC1=C\[C@@H](OC(=O)Nc2ccccc2[N+](=O)[O-])CC(=O)Cc2nc(co2)C(=O)N2CCC=C2C(=O)O[C@H](C(C)C)[C@H](C)/C=C/C(=O)NC\C=C\1` [Example 8] was run?
A: 16 mm

Q: And the MIC ([1]; ATCC9341, 18 h)?
A: 0.019 µM (≈ 0.0131 µg/mL)

Q: And the zone of inhibition at 1.25 µg/disc ([1]; ATCC9341, 1.25 μg/disc, 25° C., ~18 hours, read-out: Mean of triplicate zone size versus Micrococcus luteus)?
A: 12 mm

Q: What about the zone of inhibition at 2.5 µg/disc ([1]; ATCC9341, 2.50 μg/disc, 25° C., ~18 hours, read-out: Mean of triplicate zone size versus Micrococcus luteus) of the same molecule?
A: 15 mm

Q: And the zone of inhibition at 5 µg/disc [1, 17]?
A: 15 mm

Q: What about the zone of inhibition at 10 µg/disc [1, 17] of the same molecule?
A: 16 mm

Q: And the zone of inhibition at 20 µg/disc [1, 18]?
A: 16 mm

Q: What about the zone of inhibition at 20 µg/disc [2] of the same molecule?
A: 9 mm

Q: What about the pIC50 [3] of the same molecule?
A: 6.52

Q: What about the zone of inhibition at 20 µg/disc [4] of the same molecule?
A: 0 mm

Q: What about the zone of inhibition at 20 µg/disc [5] of the same molecule?
A: 0 mm

Q: And the “A.R. = agonist ratio = IC50([3H]L365,260)/IC50([125I]CCK)” value [6]?
A: 10

Q: And the pIC50 [6]?
A: 5.51

Q: And the pIC50 (CCK-A (rat pancreas) [7])?
A: < 5.52

Q: And the zone of inhibition at 20 µg/disc [8]?
A: 0 mm

Q: What about the pIC50 (CCK-A (rat pancreas) [9]) of the same molecule?
A: < 5.52

Q: What about the zone of inhibition at 20 µg/disc [10] of the same molecule?
A: 0 mm

Q: And the zone of inhibition at 20 µg/disc [11]?
A: 0 mm

Q: And the zone of inhibition at 20 µg/disc [12]?
A: 0 mm

Q: And the zone of inhibition at 20 µg/disc [13]?
A: 0 mm

Q: What about the zone of inhibition at 20 µg/disc (Bacillus sp. (Mb 633)) of the same molecule?
A: 0 mm

Q: What about the zone of inhibition at 20 µg/disc [14] of the same molecule?
A: 7 mm

Q: And the zone of inhibition at 20 µg/disc [15]?
A: 0 mm

Q: Which zone of inhibition at 20 µg/disc [1, 16] does the source give for `CC1=C\[C@@H](OC(=O)Nc2cccc([N+](=O)[O-])c2)CC(=O)Cc2nc(co2)C(=O)N2CCC=C2C(=O)O[C@H](C(C)C)[C@H](C)/C=C/C(=O)NC\C=C\1` [Example 9] here?
A: 8 mm

Q: What about the MIC ([1]; ATCC9341, 18 h) of the same molecule?
A: 0.82 µM (≈ 0.566 µg/mL)

Q: What about the zone of inhibition at 10 µg/disc [1, 17] of the same molecule?
A: 8 mm

Q: What about the zone of inhibition at 20 µg/disc [1, 18] of the same molecule?
A: 9 mm

Q: And the zone of inhibition at 40 µg/disc ([1]; ATCC9341, 40.0 μg/disc, 25° C., ~18 hours, read-out: Mean of triplicate zone size versus Micrococcus luteus)?
A: 10 mm

Q: What about the zone of inhibition at 80 µg/disc ([1]; ATCC9341, 80.0 μg/disc, 25° C., ~18 hours, read-out: Mean of triplicate zone size versus Micrococcus luteus) of the same molecule?
A: 11 mm

Q: And the zone of inhibition at 160 µg/disc ([1]; ATCC9341, 160 μg/disc, 25° C., ~18 hours, read-out: Mean of triplicate zone size versus Micrococcus luteus)?
A: 11 mm

Q: And the zone of inhibition at 20 µg/disc [2]?
A: 0 mm

Q: What about the pIC50 [3] of the same molecule?
A: 6.40

Q: And the zone of inhibition at 20 µg/disc [4]?
A: 0 mm

Q: And the zone of inhibition at 20 µg/disc [5]?
A: 0 mm

Q: What about the “A.R. = agonist ratio = IC50([3H]L365,260)/IC50([125I]CCK)” value [6] of the same molecule?
A: 12.9

Q: And the pIC50 [6]?
A: 5.28

Q: And the pIC50 (CCK-A (rat pancreas) [7])?
A: < 5.52

Q: What about the zone of inhibition at 20 µg/disc [8] of the same molecule?
A: 0 mm

Q: What about the pIC50 (CCK-A (rat pancreas) [9]) of the same molecule?
A: < 5.52

Q: What about the zone of inhibition at 20 µg/disc [10] of the same molecule?
A: 0 mm

Q: What about the zone of inhibition at 20 µg/disc [11] of the same molecule?
A: 0 mm

Q: And the zone of inhibition at 20 µg/disc [12]?
A: 0 mm

Q: What about the zone of inhibition at 20 µg/disc [13] of the same molecule?
A: 0 mm

Q: And the zone of inhibition at 20 µg/disc (Bacillus sp. (Mb 633))?
A: 0 mm

Q: What about the zone of inhibition at 20 µg/disc [14] of the same molecule?
A: 0 mm

Q: And the zone of inhibition at 20 µg/disc [15]?
A: 0 mm

Q: What does the source list for `CC1=C\[C@@H](OC(=O)Nc2ccc([N+](=O)[O-])cc2)CC(=O)Cc2nc(co2)C(=O)N2CCC=C2C(=O)O[C@H](C(C)C)[C@H](C)/C=C/C(=O)NC\C=C\1` [Example 10]?
A: zone of inhibition at 20 µg/disc [1, 16]: 13 mm; MIC ([1]; ATCC9341, 18 h): 3.94 µM (≈ 2.72 µg/mL); zone of inhibition at 5 µg/disc [1, 17]: 7 mm; zone of inhibition at 10 µg/disc [1, 17]: 10 mm; zone of inhibition at 20 µg/disc [1, 18]: 12 mm; zone of inhibition at 20 µg/disc [2]: 9 mm; pIC50 [3]: 5.80; zone of inhibition at 20 µg/disc [4]: 0 mm; zone of inhibition at 20 µg/disc [5]: 0 mm; A.R. = agonist ratio = IC50([3H]L365,260)/IC50([125I]CCK) [6]: 8.7; pIC50 [6]: 4.88; pIC50 (CCK-A (rat pancreas) [7]): < 5.52; zone of inhibition at 20 µg/disc [8]: 0 mm; pIC50 (CCK-A (rat pancreas) [9]): < 5.52; zone of inhibition at 20 µg/disc [10]: 0 mm; zone of inhibition at 20 µg/disc [11]: 0 mm; zone of inhibition at 20 µg/disc [12]: 0 mm; zone of inhibition at 20 µg/disc [13]: 0 mm; zone of inhibition at 20 µg/disc (Bacillus sp. (Mb 633)): 0 mm; zone of inhibition at 20 µg/disc [14]: 9 mm; zone of inhibition at 20 µg/disc [15]: 0 mm
